{
  "source": "patent US20260262643A1",
  "about": "“HERBICIDAL BENZOXAZINES” (FMC CORPORATION, priority 2022, published 2026)",
  "key": {"[1]": {"test_system": "ryegrass, Italian", "test": "Test A preemergence", "type": "in vivo, Lolium multiflorum", "conditions": "Lolium multiflorum, pre-emergence, 240 h, read-out: Plant response rating, Ryegrass, Italian; for pest or weed control at 125 g/ha: 125 g ai/ha; for pest or weed control at 500 g/ha: 500 g ai/ha", "method_in_brief": "(§1)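 Weeds and crops in loam–sand blend were sprayed preemergence onto soil or postemergence at 2–10 cm (one- to two-leaf stage). Test chemicals were in a non-phytotoxic solvent with surfactant. After 10 days in the greenhouse, injury was rated visually against untreated controls on a 0 (no effect) to 100 (complete control) scale.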"}, "[2]": {"test_system": "ragweed", "test": "Test A preemergence", "type": "in vivo, Ambrosia artemisiifolia", "conditions": "Ambrosia artemisiifolia, pre-emergence, 240 h, read-out: Plant response rating, Ragweed; for pest or weed control at 125 g/ha: 125 g ai/ha; for pest or weed control at 500 g/ha: 500 g ai/ha", "method_in_brief": "as §1"}, "[3]": {"test_system": "kochia", "test": "Test A preemergence", "type": "in vivo, Bassia scoparia", "conditions": "Bassia scoparia, pre-emergence, 240 h, read-out: Plant response rating, Kochia; for pest or weed control at 125 g/ha: 125 g ai/ha; for pest or weed control at 500 g/ha: 500 g ai/ha", "method_in_brief": "as §1"}, "[4]": {"test_system": "kochia", "test": "Test A postemergence", "type": "in vivo, Bassia scoparia", "conditions": "Bassia scoparia, post-emergence, 240 h, postemergence, 10 days, 0 to 100 scale (0 no effect, 100 complete control); for pest or weed control at 125 g/ha: 125 g ai/ha, read-out: Kochia plant response rating; for pest or weed control at 500 g/ha: 500 g ai/ha, visual injury, read-out: Plant response rating, Kochia", "method_in_brief": "as §1"}, "[5]": {"test_system": "oat, wild", "test": "Test A preemergence", "type": "in vivo, Avena fatua", "conditions": "Avena fatua, pre-emergence, 240 h, read-out: Plant response rating, Oat, Wild; for pest or weed control at 125 g/ha: 125 g ai/ha; for pest or weed control at 500 g/ha: 500 g ai/ha", "method_in_brief": "as §1"}, "[6]": {"test_system": "corn", "test": "Test A preemergence", "type": "in vivo, Zea mays", "conditions": "Zea mays, pre-emergence, 240 h; for Corn plant response rating (crop injury, 0 = no effect, 100 = complete kill) at 125 g/ha: 125 g ai/ha; for Corn plant response rating (crop injury, 0 = no effect, 100 = complete kill) at 500 g/ha: 500 g ai/ha", "method_in_brief": "as §1"}, "[7]": {"test_system": "barnyardgrass", "test": "Test B flooded paddy test", "type": "in vivo, Echinochloa crus-galli", "conditions": "Echinochloa crus-galli, 312 h, 250 g ai/ha, Flood, 13 days, 0 to 100 scale (0 no effect, 100 complete control); read-out: Plant response rating, Barnyardgrass", "method_in_brief": "(§2)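 Each species was raised to the 2-leaf stage. At treatment, each pot received floodwater 3 cm deep, with the chemical delivered into the water. Greenhouse holding followed for 13 days, then percent control was estimated visually versus untreated pots.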"}, "[8]": {"test_system": "ducksalad", "test": "Test B flooded paddy test", "type": "in vivo, Heteranthera limosa", "conditions": "Heteranthera limosa, 312 h, 250 g ai/ha, Flood, 13 days, 0 to 100 scale (0 no effect, 100 complete control); read-out: Plant response rating, Ducksalad", "method_in_brief": "as §2"}, "[9]": {"test_system": "rice", "test": "Test B flooded paddy test", "type": "in vivo, Oryza sativa", "conditions": "Oryza sativa, 312 h; 250 g ai/ha, Flood, 13 days, 0 to 100 scale (0 no effect, 100 complete control); read-out: Plant response rating, Rice", "method_in_brief": "as §2"}, "[10]": {"test_system": "wheat", "test": "Test A preemergence", "type": "in vivo, Triticum aestivum", "conditions": "Triticum aestivum, pre-emergence, 240 h, read-out: Plant response rating, Wheat; for plant injury at 125 g/ha: 125 g ai/ha; for plant injury at 500 g/ha: 500 g ai/ha", "method_in_brief": "as §1"}, "[11]": {"test_system": "horseweed", "test": "Test A postemergence", "type": "in vivo, Erigeron canadensis", "conditions": "Erigeron canadensis, post-emergence, 240 h, postemergence, 10 days, 0 to 100 scale (0 no effect, 100 complete control); for pest or weed control at 125 g/ha: 125 g ai/ha, read-out: Horseweed plant response rating; for pest or weed control at 500 g/ha: 500 g ai/ha, visual injury, read-out: Plant response rating, Horseweed", "method_in_brief": "as §1"}, "[12]": {"test_system": "corn", "test": "Test A postemergence", "type": "in vivo, Zea mays", "conditions": "Zea mays, post-emergence, 240 h, postemergence, 10 days, 0 to 100 scale (0 no effect, 100 complete control); for plant injury at 125 g/ha: 125 g ai/ha, read-out: Corn plant response rating; for Corn plant response rating (crop injury, 0 = no effect, 100 = complete kill) at 500 g/ha: 500 g ai/ha, visual injury", "method_in_brief": "as §1"}, "[13]": {"test_system": "pigweed, palmer", "test": "Test A preemergence", "type": "in vivo, Amaranthus palmeri", "conditions": "Amaranthus palmeri, pre-emergence, 240 h, read-out: Plant response rating, Pigweed, Palmer; for pest or weed control at 125 g/ha: 125 g ai/ha; for pest or weed control at 500 g/ha: 500 g ai/ha", "method_in_brief": "as §1"}, "[14]": {"test_system": "soybean", "test": "Test A postemergence", "type": "in vivo, Glycine max", "conditions": "Glycine max, post-emergence, 240 h, postemergence, 10 days, 0 to 100 scale (0 no effect, 100 complete control); for plant injury at 125 g/ha: 125 g ai/ha, read-out: Soybean plant response rating; for plant injury at 500 g/ha: 500 g ai/ha, visual injury, read-out: Plant response rating, Soybean", "method_in_brief": "as §1"}, "[15]": {"conditions": "visual injury after 10 days, 0 to 100 scale, 0 is no effect, 100 is complete control"}, "[16]": {"conditions": "0 to 100 scale (0 no effect, 100 complete control), 10 days"}},
  "note": "Where two headings read alike, the source gives them in different places.",
  "data": [
    {"smiles": "COc1ccc(-n2cnc(C(C)C)n2)cc1C(=O)N1C[C@H](C)Oc2c(Cl)cccc21", "note": "[Compound 84, [(2S)-8-chloro-2-methyl-2,3-dihydro-1,4-benzoxazin-4-yl]-[5-(3-isopropyl-1,2,4-triazol-1-yl)-2-methoxy-phenyl]methanone]", "values": [
      {"measurement": "pest or weed control at 125 g/ha", "setting": "[1]; [15]", "result": 100, "unit": "%"},
      {"measurement": "pest or weed control at 500 g/ha", "setting": "[1]; [16]", "result": 100, "unit": "%"},
      {"measurement": "pest or weed control at 125 g/ha", "setting": "[2]; [15]", "result": 70, "unit": "%"},
      {"measurement": "pest or weed control at 500 g/ha", "setting": "[2]; [16]", "result": 100, "unit": "%"},
      {"measurement": "pest or weed control at 125 g/ha", "setting": "[3]; [15]", "result": 80, "unit": "%"},
      {"measurement": "pest or weed control at 500 g/ha", "setting": "[3]; [16]", "result": 100, "unit": "%"},
      {"measurement": "pest or weed control at 125 g/ha", "setting": "[4]", "result": 90, "unit": "%"},
      {"measurement": "pest or weed control at 500 g/ha", "setting": "[4]", "result": 90, "unit": "%"},
      {"measurement": "pest or weed control at 125 g/ha", "setting": "[5]; [15]", "result": 90, "unit": "%"},
      {"measurement": "pest or weed control at 500 g/ha", "setting": "[5]; [16]", "result": 90, "unit": "%"},
      {"measurement": "Corn plant response rating (crop injury, 0 = no effect, 100 = complete kill) at 125 g/ha", "setting": "[6]; [15]", "result": 20, "unit": "%"},
      {"measurement": "Corn plant response rating (crop injury, 0 = no effect, 100 = complete kill) at 500 g/ha", "setting": "[6]; [16]", "result": 20, "unit": "%"},
      {"measurement": "pest or weed control at 250 g/ha", "setting": "[7]", "result": 65, "unit": "%"},
      {"measurement": "pest or weed control at 250 g/ha", "setting": "[8]", "result": 60, "unit": "%"},
      {"measurement": "plant injury at 250 g/ha", "setting": "[9]", "result": 0, "unit": "%"},
      {"measurement": "plant injury at 125 g/ha", "setting": "[10]; [15]", "result": 60, "unit": "%"},
      {"measurement": "plant injury at 500 g/ha", "setting": "[10]; [16]", "result": 90, "unit": "%"},
      {"measurement": "pest or weed control at 125 g/ha", "setting": "[11]", "result": 40, "unit": "%"},
      {"measurement": "pest or weed control at 500 g/ha", "setting": "[11]", "result": 50, "unit": "%"},
      {"measurement": "plant injury at 125 g/ha", "setting": "[12]", "result": 70, "unit": "%"},
      {"measurement": "Corn plant response rating (crop injury, 0 = no effect, 100 = complete kill) at 500 g/ha", "setting": "[12]", "result": 90, "unit": "%"},
      {"measurement": "pest or weed control at 125 g/ha", "setting": "[13]; [15]", "result": 100, "unit": "%"},
      {"measurement": "pest or weed control at 500 g/ha", "setting": "[13]; [16]", "result": 100, "unit": "%"},
      {"measurement": "plant injury at 125 g/ha", "setting": "[14]", "result": 100, "unit": "%"},
      {"measurement": "plant injury at 500 g/ha", "setting": "[14]", "result": 100, "unit": "%"}
    ]},
    {"smiles": "Cc1cccc2c1O[C@@H](C)CN2C(=O)c1cccc(-n2cn[nH]c2=O)c1", "note": "[Compound 122, 4-[3-[[(2S)-2,3-Dihydro-2,8-dimethyl-4H-1,4-benzoxazin-4-yl]carbonyl]phenyl]-2,4-dihydro-3H-1,2,4-triazol-3-one]", "values": [
      {"measurement": "pest or weed control at 125 g/ha", "setting": "[1]; [15]", "result": 20, "unit": "%"},
      {"measurement": "pest or weed control at 500 g/ha", "setting": "[1]; [15]", "result": 70, "unit": "%"},
      {"measurement": "pest or weed control at 125 g/ha", "setting": "[2]; [15]", "result": 0, "unit": "%"},
      {"measurement": "pest or weed control at 500 g/ha", "setting": "[2]; [15]", "result": 0, "unit": "%"},
      {"measurement": "pest or weed control at 125 g/ha", "setting": "[3]; [15]", "result": 0, "unit": "%"},
      {"measurement": "pest or weed control at 500 g/ha", "setting": "[3]; [15]", "result": 10, "unit": "%"},
      {"measurement": "pest or weed control at 125 g/ha", "setting": "[4]", "result": 30, "unit": "%"},
      {"measurement": "pest or weed control at 500 g/ha", "setting": "[4]", "result": 50, "unit": "%"},
      {"measurement": "pest or weed control at 125 g/ha", "setting": "[5]; [15]", "result": 0, "unit": "%"},
      {"measurement": "pest or weed control at 500 g/ha", "setting": "[5]; [15]", "result": 20, "unit": "%"},
      {"measurement": "Corn plant response rating (crop injury, 0 = no effect, 100 = complete kill) at 125 g/ha", "setting": "[6]; [15]", "result": 0, "unit": "%"},
      {"measurement": "Corn plant response rating (crop injury, 0 = no effect, 100 = complete kill) at 500 g/ha", "setting": "[6]; [15]", "result": 10, "unit": "%"},
      {"measurement": "pest or weed control at 250 g/ha", "setting": "[7]", "result": 0, "unit": "%"},
      {"measurement": "pest or weed control at 250 g/ha", "setting": "[8]", "result": 0, "unit": "%"},
      {"measurement": "plant injury at 250 g/ha", "setting": "[9]", "result": 0, "unit": "%"},
      {"measurement": "plant injury at 125 g/ha", "setting": "[10]; [15]", "result": 0, "unit": "%"},
      {"measurement": "plant injury at 500 g/ha", "setting": "[10]; [15]", "result": 0, "unit": "%"},
      {"measurement": "pest or weed control at 125 g/ha", "setting": "[11]", "result": 0, "unit": "%"},
      {"measurement": "pest or weed control at 500 g/ha", "setting": "[11]", "result": 0, "unit": "%"},
      {"measurement": "plant injury at 125 g/ha", "setting": "[12]", "result": 10, "unit": "%"},
      {"measurement": "Corn plant response rating (crop injury, 0 = no effect, 100 = complete kill) at 500 g/ha", "setting": "[12]", "result": 60, "unit": "%"},
      {"measurement": "pest or weed control at 125 g/ha", "setting": "[13]; [15]", "result": 0, "unit": "%"},
      {"measurement": "pest or weed control at 500 g/ha", "setting": "[13]; [15]", "result": 30, "unit": "%"},
      {"measurement": "plant injury at 125 g/ha", "setting": "[14]", "result": 50, "unit": "%"},
      {"measurement": "plant injury at 500 g/ha", "setting": "[14]", "result": 90, "unit": "%"}
    ]}
  ]
}
